Source: BindingDB's records for doi:10.1124/jpet.102.045674 (Pudue Pharma Discovery Research, 2003)

Key:
[1] = molecular target: Amine oxidase [flavin-containing] B (Rattus norvegicus, UniProt P19643)
Substance-P receptor = Substance-P receptor (Rattus norvegicus, UniProt P14600)
[2] = molecular target: Nitric oxide synthase, brain (Rattus norvegicus, UniProt P29476)
[3] = molecular target: Sodium-dependent dopamine transporter (Rattus norvegicus, UniProt P23977)
[4] = molecular target: Gamma-aminobutyric acid (GABA) B receptor 1 (Rattus norvegicus, UniProt Q6MFX8)
[5] = molecular target: Alpha-1A adrenergic receptor (Rattus norvegicus, UniProt P43140)
[6] = molecular target: ATP-sensitive inward rectifier potassium channel 1 (Rattus norvegicus, UniProt P35560)
[7] = molecular target: Gamma-aminobutyric acid receptor subunit alpha-1 (Rattus norvegicus, UniProt P62813)
[8] = molecular target: Alpha-2C adrenergic receptor (Rattus norvegicus, UniProt P22086)
[9] = molecular target: Type-1 angiotensin II receptor A (Rattus norvegicus, UniProt P25095)
[10] = molecular target: Type-2 angiotensin II receptor (Rattus norvegicus, UniProt P35351)
B2 bradykinin receptor = B2 bradykinin receptor (Rattus norvegicus, UniProt P25023)
[11] = molecular target: Choline O-acetyltransferase (Rattus norvegicus, UniProt P32738)
[12] = molecular target: Muscarinic acetylcholine receptor M2 (Rattus norvegicus, UniProt P10980)
[13] = molecular target: Muscarinic acetylcholine receptor M1 (Rattus norvegicus, UniProt P08482)
D(1A) dopamine receptor = D(1A) dopamine receptor (Rattus norvegicus, UniProt P18901)
Endothelin-1 receptor = Endothelin-1 receptor (Rattus norvegicus, UniProt P26684)
Estrogen receptor = Estrogen receptor (Rattus norvegicus, UniProt P06211)
[14] = molecular target: Glutamate receptor ionotropic, kainate 1 (Rattus norvegicus, UniProt P22756)
[15] = molecular target: Glutamate decarboxylase 2 (Rattus norvegicus, UniProt Q05683)
[16] = molecular target: Glycine receptor subunit alpha-1 (Rattus norvegicus, UniProt P07727)
Histamine H2 receptor = Histamine H2 receptor (Rattus norvegicus, UniProt P25102)
Hrh3 protein = Hrh3 protein (Rattus norvegicus, UniProt Q5PPG3)
[17] = molecular target: Leukotriene B4 receptor 1 (Rattus norvegicus, UniProt Q9R0Q2)
[18] = molecular target: Cysteinyl leukotriene receptor 1 (Rattus norvegicus, UniProt Q924T8)
[19] = molecular target: Melatonin receptor type 1A (Rattus norvegicus, UniProt P49218)
[20] = molecular target: Nicotinic acetylcholine receptor (Rattus leucopus, UniProt Q62594)
Substance-K receptor = Substance-K receptor (Rattus norvegicus, UniProt P16610)
[21] = molecular target: Norepinephrine transporter (Rattus norvegicus, UniProt Q9JIA2)
Oxytocin receptor = Oxytocin receptor (Rattus norvegicus, UniProt P70536)
[22] = molecular target: Platelet-activating factor receptor (Rattus norvegicus, UniProt P46002)
[23] = molecular target: Small conductance calcium-activated potassium channel protein 1 (Rattus norvegicus, UniProt P70606)
Thromboxane A2 receptor = Thromboxane A2 receptor (Rattus norvegicus, UniProt P34978)
[24] = molecular target: Sodium channel protein type 1 subunit alpha (Rattus norvegicus, UniProt P04774)
[25] = molecular target: Sodium channel protein type 2 subunit alpha (Rattus norvegicus, UniProt P04775)
[26] = molecular target: Beta-2 adrenergic receptor (Rattus norvegicus, UniProt P10608)
[27] = molecular target: Corticotropin releasing factor receptor (Rattus norvegicus) (UniProt P35353)
[28] = molecular target: Androgen receptor (Rattus norvegicus) (UniProt P15207)
[29] = molecular target: Thyrotropin-releasing hormone receptor (Rattus norvegicus) (UniProt Q01717)
[30] = molecular target: Vasopressin V1a receptor (Rattus norvegicus) (UniProt P30560)

Substance-P receptor, sequence (P14600 whole entry): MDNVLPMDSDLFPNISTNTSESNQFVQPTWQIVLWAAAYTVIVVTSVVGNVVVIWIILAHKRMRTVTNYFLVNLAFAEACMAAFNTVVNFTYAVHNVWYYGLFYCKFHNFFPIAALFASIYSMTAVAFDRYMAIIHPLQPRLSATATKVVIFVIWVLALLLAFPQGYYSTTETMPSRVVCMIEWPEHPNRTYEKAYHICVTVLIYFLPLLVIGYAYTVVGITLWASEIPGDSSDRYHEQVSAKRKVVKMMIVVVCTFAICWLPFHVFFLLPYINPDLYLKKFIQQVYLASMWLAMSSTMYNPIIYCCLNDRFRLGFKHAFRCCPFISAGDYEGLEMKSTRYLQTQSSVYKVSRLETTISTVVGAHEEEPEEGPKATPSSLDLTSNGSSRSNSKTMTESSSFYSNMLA
Histamine H2 receptor, sequence (P25102 whole entry): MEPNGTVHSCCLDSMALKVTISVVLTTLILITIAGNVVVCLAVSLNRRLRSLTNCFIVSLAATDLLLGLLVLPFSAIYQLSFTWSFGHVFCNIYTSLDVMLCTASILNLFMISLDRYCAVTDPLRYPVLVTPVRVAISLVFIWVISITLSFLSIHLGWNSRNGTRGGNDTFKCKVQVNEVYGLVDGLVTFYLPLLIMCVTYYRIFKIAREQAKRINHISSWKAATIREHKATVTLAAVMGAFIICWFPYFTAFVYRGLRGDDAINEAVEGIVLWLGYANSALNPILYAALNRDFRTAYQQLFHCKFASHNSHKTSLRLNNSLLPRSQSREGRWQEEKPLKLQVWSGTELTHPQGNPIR
Melatonin receptor type 1A, sequence (P49218 whole entry): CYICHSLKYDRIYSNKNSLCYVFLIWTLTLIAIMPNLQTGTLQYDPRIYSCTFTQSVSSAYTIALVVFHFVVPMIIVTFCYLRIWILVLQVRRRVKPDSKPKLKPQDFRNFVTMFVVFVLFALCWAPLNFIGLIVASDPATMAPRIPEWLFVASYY
Cysteinyl leukotriene receptor 1, sequence (Q924T8 whole entry): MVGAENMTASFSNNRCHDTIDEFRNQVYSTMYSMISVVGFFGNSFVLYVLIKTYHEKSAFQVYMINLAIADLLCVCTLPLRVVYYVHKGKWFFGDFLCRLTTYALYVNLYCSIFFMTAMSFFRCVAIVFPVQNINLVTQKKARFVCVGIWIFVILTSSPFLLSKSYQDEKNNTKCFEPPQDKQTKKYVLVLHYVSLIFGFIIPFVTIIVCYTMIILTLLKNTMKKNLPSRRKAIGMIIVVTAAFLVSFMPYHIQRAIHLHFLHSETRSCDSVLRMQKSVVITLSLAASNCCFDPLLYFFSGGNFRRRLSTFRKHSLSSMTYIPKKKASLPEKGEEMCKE
Glutamate decarboxylase 2, sequence (Q05683 whole entry): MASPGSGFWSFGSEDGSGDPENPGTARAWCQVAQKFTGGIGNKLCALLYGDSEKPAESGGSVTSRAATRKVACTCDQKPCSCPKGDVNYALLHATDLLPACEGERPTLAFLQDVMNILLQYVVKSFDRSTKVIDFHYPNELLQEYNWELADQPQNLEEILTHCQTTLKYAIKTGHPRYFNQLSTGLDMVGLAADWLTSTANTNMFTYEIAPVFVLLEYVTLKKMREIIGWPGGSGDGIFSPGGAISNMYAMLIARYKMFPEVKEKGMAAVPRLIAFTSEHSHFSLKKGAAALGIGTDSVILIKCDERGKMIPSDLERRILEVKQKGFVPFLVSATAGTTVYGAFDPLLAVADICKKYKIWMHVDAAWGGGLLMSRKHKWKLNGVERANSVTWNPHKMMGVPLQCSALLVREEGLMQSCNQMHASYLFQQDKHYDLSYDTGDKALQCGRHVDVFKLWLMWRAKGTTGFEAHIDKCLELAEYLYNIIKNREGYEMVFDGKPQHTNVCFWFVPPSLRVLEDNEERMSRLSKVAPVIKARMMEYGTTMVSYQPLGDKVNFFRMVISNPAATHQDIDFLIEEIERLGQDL
Androgen receptor (Rattus norvegicus), sequence (P15207 whole entry, looked up): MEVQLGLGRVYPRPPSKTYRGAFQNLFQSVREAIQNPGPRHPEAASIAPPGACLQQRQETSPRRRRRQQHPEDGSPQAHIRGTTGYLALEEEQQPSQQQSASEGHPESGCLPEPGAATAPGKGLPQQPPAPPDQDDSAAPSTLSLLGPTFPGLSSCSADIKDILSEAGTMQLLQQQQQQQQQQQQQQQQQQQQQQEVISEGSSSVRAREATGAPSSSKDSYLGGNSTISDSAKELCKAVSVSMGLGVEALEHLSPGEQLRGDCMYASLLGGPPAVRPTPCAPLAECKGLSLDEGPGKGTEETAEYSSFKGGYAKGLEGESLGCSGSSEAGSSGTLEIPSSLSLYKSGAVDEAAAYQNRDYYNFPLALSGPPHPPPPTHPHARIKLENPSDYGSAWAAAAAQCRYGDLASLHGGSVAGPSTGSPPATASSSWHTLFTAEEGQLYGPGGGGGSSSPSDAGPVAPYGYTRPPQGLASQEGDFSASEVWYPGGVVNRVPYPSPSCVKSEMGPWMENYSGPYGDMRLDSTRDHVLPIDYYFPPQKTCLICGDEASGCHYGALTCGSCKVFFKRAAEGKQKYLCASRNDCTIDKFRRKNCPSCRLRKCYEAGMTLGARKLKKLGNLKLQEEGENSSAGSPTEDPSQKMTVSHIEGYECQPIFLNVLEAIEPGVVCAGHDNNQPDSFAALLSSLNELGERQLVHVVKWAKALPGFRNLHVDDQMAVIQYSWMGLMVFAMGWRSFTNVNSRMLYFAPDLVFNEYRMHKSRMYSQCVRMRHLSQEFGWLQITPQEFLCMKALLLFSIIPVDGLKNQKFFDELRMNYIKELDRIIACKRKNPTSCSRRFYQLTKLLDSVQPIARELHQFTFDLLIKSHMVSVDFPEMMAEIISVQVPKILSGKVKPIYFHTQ
Type-2 angiotensin II receptor, sequence (P35351 whole entry): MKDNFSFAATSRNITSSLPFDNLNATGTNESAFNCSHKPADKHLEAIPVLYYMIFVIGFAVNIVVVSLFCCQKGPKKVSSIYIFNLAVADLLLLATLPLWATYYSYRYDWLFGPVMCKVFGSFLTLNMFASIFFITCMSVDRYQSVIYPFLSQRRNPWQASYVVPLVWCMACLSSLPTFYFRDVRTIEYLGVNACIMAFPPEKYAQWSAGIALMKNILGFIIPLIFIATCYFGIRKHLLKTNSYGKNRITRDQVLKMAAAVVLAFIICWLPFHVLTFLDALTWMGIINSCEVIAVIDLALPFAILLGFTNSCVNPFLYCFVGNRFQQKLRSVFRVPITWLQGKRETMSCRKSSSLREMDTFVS
Muscarinic acetylcholine receptor M1, sequence (P08482 whole entry): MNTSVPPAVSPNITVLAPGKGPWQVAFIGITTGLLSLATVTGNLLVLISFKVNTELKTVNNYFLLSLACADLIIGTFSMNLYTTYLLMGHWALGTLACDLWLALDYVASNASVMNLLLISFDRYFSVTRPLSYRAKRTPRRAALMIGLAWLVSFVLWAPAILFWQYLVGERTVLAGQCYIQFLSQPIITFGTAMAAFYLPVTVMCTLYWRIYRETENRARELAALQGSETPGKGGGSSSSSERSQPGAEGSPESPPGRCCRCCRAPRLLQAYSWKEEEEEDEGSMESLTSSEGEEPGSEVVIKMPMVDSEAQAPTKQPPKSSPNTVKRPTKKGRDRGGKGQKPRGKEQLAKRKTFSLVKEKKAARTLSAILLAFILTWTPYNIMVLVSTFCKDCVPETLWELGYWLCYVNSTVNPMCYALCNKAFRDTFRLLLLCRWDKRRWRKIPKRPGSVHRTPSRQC
Nicotinic acetylcholine receptor, sequence (Q62594 whole entry): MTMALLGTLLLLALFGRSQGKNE
Glutamate receptor ionotropic, kainate 1, sequence (P22756 whole entry): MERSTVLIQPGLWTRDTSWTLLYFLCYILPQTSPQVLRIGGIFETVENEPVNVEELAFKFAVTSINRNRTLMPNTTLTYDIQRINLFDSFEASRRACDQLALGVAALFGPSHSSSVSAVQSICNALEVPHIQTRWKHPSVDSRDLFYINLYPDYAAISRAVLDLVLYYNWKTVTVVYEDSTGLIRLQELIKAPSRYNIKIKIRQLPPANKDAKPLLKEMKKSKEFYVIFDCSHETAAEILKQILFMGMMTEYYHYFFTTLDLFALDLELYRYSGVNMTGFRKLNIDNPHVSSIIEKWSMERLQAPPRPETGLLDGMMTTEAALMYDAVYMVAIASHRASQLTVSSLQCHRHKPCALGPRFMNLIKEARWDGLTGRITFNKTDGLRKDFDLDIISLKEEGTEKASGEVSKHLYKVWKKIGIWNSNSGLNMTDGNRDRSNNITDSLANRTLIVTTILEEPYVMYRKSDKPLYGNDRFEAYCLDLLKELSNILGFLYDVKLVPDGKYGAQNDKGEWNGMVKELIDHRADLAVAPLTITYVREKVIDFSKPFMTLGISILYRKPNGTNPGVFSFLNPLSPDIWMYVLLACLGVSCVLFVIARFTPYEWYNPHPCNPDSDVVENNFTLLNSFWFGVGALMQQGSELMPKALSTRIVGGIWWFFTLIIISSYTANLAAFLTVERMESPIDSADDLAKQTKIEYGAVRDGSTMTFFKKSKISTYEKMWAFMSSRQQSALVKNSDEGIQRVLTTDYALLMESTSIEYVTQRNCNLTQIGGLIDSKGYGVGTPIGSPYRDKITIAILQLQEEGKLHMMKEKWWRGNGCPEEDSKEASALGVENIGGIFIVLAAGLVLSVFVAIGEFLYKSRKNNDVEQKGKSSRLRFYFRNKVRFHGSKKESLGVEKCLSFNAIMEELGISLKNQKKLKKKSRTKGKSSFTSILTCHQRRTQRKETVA
ATP-sensitive inward rectifier potassium channel 1, sequence (P35560 whole entry): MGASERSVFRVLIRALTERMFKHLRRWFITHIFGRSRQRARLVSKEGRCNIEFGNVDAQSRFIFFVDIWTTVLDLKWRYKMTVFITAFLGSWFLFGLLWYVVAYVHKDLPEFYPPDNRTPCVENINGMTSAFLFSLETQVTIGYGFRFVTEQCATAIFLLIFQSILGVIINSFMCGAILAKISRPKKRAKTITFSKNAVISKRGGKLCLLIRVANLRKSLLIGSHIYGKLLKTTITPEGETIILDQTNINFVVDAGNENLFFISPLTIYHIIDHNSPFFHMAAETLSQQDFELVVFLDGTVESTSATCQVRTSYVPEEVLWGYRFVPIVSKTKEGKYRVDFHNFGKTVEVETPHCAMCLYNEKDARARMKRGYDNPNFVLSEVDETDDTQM

Ki [1]: > 10 µM
Ki (Substance-P receptor): > 10 µM
Ki [2]: > 10 µM
Ki [3]: > 10 µM
Ki [4]: > 10 µM
Ki [5]: > 10 µM
Ki [6]: > 10 µM
Ki [7]: > 10 µM
Ki [8]: > 10 µM
Ki [9]: > 10 µM
Ki [10]: > 10 µM
Ki (B2 bradykinin receptor): > 10 µM
Ki [11]: > 10 µM
Ki [12]: > 10 µM
Ki [13]: > 10 µM
Ki (D(1A) dopamine receptor): > 10 µM
Ki (Endothelin-1 receptor): > 10 µM
Ki (Estrogen receptor): > 10 µM
Ki [14]: > 10 µM
Ki [15]: > 10 µM
Ki [16]: > 10 µM
Ki (Histamine H2 receptor): > 10 µM
Ki (Hrh3 protein): > 10 µM
Ki [17]: > 10 µM
Ki [18]: > 10 µM
Ki [19]: > 10 µM
Ki [20]: > 10 µM
Ki (Substance-K receptor): > 10 µM
Ki [21]: > 10 µM
Ki (Oxytocin receptor): > 10 µM
Ki [22]: > 10 µM
Ki [23]: > 10 µM
Ki (Thromboxane A2 receptor): > 10 µM
Ki [24]: > 10 µM
Ki [25]: > 10 µM
Ki [26]: > 10 µM
Ki [27]: > 10 µM
Ki [28]: > 10 µM
Ki [29]: > 10 µM
Ki [30]: > 10 µM
Structure (SMILES): CC(C)(C)c1ccc(NC(=O)N2CCN(c3ncccc3Cl)CC2)cc1 [BCTC]
